Assay results taken from patent US10029984B2, “Mono- or di-substituted indole derivatives as dengue viral replication inhibitors” (Janssen Pharmaceuticals, Inc., priority 2015, dated 2018).

How the values were obtained:
[1] = Chiral stability at pH 7.4 (enantiomeric excess by Chiral SFC after incubation); assay type: physicochemical; details: buffered solution pH 7.4, 5 μM
Description: The chiral stability of Enantiomer 10B (R=OMe) was evaluated by determination of the enantiomeric excess (ee %) after incubation for 24 h and 48 h in a buffered solution at pH 7.4 at 40° C. and 60° C. To assess the influence of the methoxy-substituent of Enantiomer 10B (R=OMe) on the stability against racemization, the chiral stability of Enantiomer 10′B (R=H) was tested under the same conditions. To this end, 5 μM buffered (pH=7.4) solutions of 10B and 10′B were prepared by mixing 25 μL of a 100 μM solution of 10B and 10′B in DMSO with 475 μL aqueous buffer pH 7.4. Samples were taken 24 h and 48 h after incubation at 40° C. and 60° C. The analytical samples were analyzed by Chiral SFC (MS detection) and the chiral purity was expressed as the enantiomeric excess (ee %=% enantiomer B−% enantiomer A).

DENV-1 strain TC974#666 = test: Tetravalent RT-qPCR assay Protocol A, serotype 1; assay type: cell-based; details: Dengue virus, DENV1, 72 h; RT-qPCR serotype 1 TC974#666, Vero cells, day 3
Description: The antiviral activity of the compounds of the invention was tested against DENV-1 strain TC974#666 (NCPV; Table 6), DENV-2 strain 16681 (Table 7), DENV-3 strain H87 (NCPV; Table 8) and DENV-4 strains H241 (NCPV; Table 9) in a RT-qPCR assay. Therefore, Vero cells were infected with either DENV-1, or -2, or -3, or -4 in the presence or absence of test compounds. At day 3 post-infection, the cells were lysed and cell lysates were used to prepare cDNA of both a viral target (the 3′UTR of DENV; table 2) and a cellular reference gene (β-actin, table 2). Subsequently, a duplex real time PCR was performed on a Lightcycler480 instrument. The generated Cp value is inversely proportional to the amount of RNA expression of these targets. Inhibition of DENV replication by a test compound result in a shift of Cp's for the 3′UTR gene. On the other hand, if a test compound is toxic to the cells, a similar effect on β-actin expression will be observed. The comparative ΔΔCp method is used to calculate EC50, which is based on the relative gene expression of the target gene (3′UTR) normalized with the cellular housekeeping gene (β-actin).
The culture medium consisted of minimal essential medium supplemented with 2% of heat-inactivated fetal calf serum, 0.04% gentamycin (50 mg/mL) and 2 mM of L-glutamine. Vero cells, obtained from ECACC, were suspended in culture medium and 75 μL/well was added in 96-well plates (10000 cells/well), which already contain the antiviral compounds. Typically, these plates contain a 4-fold serial dilution of 9 dilution steps of the test compound at 200 times the final concentration in 100% DMSO (500 nL; final concentration range: 25 μM-0.00038 μM). In addition, each plate contains wells which are assigned as virus controls (containing cells and virus in the absence of compound) and cell controls (containing cells in the absence of virus and compound). Once the cells were added in the plates, the plates were incubated in a fully humidified incubator (37° C., 5% CO2) until the next day. Then, DENV-1 strain TC974#666 at an MOI of 0.6, DENV-2 strain 16681 at an MOI of 0.01, DENV-3 strain H87 at an MOI of 1.0 and DENV-4 strains H241 at an MOI of 0.2 and SG/06K2270DK1/2005 at an MOI of 0.16, were added. Therefore, 25 μL of virus suspension was added to all the wells containing test compound and to the wells assigned as virus control. In parallel, 25 μL of culture medium was added to the cell controls. Next, the plates were incubated for 3 days in a fully humidified incubator (37° C., 5% CO2). After 3 days, the supernatant was removed from the wells and the cells were washed twice with ice-cold PBS (˜100 μL). The cell pellets within the 96-well plates were stored at −80° C. for at least 1 day. Next, RNA was extracted using the Cells-to-CT™ lysis kit, according to the manufacture's guideline (Applied Biosystems). The cell lysates can be stored at −80° C. or immediately used in the reverse transcription step.
In preparation of the reverse transcription step, mix A (table 3A) was prepared and 7.57 μL/well was dispensed in a 96-well plate. After addition of 5 μL of the cell lysates, a five minute denaturation step at 75° C. was performed (table 3B). Afterwards, 7.43 μL of mix B was added (table 3C) and the reverse transcription step was initiated (table 3D) to generate cDNA.
Finally, a RT-qPCR mix was prepared, mix C (table 4A), dispensed in 96-well LightCycler qPCR plates to which 3 μL of cDNA was added and the qPCR was performed according to the conditions in table 4B on a LightCycler 480. Using the LightCycler software and an in-house LIMS system, dose response curves for each compound were calculated and the half maximal effective concentration (EC50) and the half maximal cytotoxic concentration (CC50) were determined.

COc1cc(NC(C(=O)c2c[nH]c3cc(OC)c(C)cc23)c2ccc(F)cc2OC)cc(S(C)(=O)=O)c1 (single isomer, unassigned) [Enantiomer 10B, 2-(4-fluoro-2-methoxyphenyl)-2-((3-methoxy-5-(methylsulfonyl)phenyl)amino)-1-(6-methoxy-5-methyl-1H-indol-3-yl)ethanone]
ee % ([1]; 40° C., 24 h): 100% | ee % ([1]; 40° C., 48 h): 100% | ee % ([1]; 60° C., 24 h): 97% | ee % ([1]; 60° C., 48 h): 97% | EC50 (DENV-1 strain TC974#666): 4.46 nM
